Measured values published in US20260207578A1, “COMPOUND BASED ON SULFUR/OXYGEN SUBSTITUTED GLUTARIMIDE-BASED ISOINDOLINONE SKELETON AND USE THEREOF” (Gluetacs Therapeutics (Shanghai) Co., LTD., priority 2022, published 2026).

Tests used:
[1] = target: T1, human Cereblon WT GST-tagged protein (Homo sapiens, UniProt Q96SW2); experiment: CRBN-binding affinity, HTRF (CEREBLON BINDING kit); conditions: displacement of Thalidomide-Re reagent, 3 hours at room temperature
T1 construct: purchased CISBIO 64BDCRBNPEH
T1 sequence (Q96SW2 whole entry): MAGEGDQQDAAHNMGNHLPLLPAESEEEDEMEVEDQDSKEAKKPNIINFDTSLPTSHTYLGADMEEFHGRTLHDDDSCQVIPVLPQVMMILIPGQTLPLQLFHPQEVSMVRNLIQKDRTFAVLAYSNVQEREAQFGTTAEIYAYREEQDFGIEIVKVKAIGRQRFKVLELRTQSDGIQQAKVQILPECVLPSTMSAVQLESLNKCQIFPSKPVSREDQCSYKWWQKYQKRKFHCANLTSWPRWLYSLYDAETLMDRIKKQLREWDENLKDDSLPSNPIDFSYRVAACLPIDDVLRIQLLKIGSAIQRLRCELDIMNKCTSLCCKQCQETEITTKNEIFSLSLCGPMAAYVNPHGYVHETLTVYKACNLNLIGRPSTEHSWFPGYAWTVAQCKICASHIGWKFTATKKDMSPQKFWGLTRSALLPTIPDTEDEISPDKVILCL
Experimental: The CEREBLON BINDING kits (specification: 10,000 tests; product number: Catalog #64BDCRBNPEH; CISBIO company) was used to determine the CRBN binding ability of the compounds to be tested through a HTRF method (homogeneous time-resolved fluorescence). The specific methods are as follows: • 1. […] Then, 2.5 μL of human Cereblon WT GST-tagged protein solution was added to each well. Finally, 5 μL of the thoroughly mixed Thalidomide-Re reagent and GST Eu antibody working solution were added to each of the aforementioned wells. […] The blank control wells were sequentially added with 2.5 μL of diluent #9 (1×) solution, 2.5 μL of PROTAC binding buffer, and 5 μL of thoroughly mixed Thalidomide-Re reagent and GST Eu antibody working solution. • 4.
OD 620 nmcompound is the absorbance value of each well of the compounds to be tested of the present disclosure at an emission wavelength of 620 nm. […] OD 620 nmcontrol is the absorbance value of the blank control well at an emission wavelength of 620 nm. […] OD 620 nmStd0 is the absorbance value of the solvent control well at an emission wavelength of 620 nm.

IKZF2 = target: T2, IKZF2 (Homo sapiens, UniProt Q96SW2+Q9UKS7); experiment: Western-blot assay, substrate protein in hPBMCs; assay type: cell-based; conditions: hPBMC cells, 24 hours, tested at 50 nM and 500 nM, table does not say which
T2 construct: endogenous in cells; host or cells: human PBMCs (Milecell Biotechnologies)
T2 sequence (Q9UKS7 whole entry): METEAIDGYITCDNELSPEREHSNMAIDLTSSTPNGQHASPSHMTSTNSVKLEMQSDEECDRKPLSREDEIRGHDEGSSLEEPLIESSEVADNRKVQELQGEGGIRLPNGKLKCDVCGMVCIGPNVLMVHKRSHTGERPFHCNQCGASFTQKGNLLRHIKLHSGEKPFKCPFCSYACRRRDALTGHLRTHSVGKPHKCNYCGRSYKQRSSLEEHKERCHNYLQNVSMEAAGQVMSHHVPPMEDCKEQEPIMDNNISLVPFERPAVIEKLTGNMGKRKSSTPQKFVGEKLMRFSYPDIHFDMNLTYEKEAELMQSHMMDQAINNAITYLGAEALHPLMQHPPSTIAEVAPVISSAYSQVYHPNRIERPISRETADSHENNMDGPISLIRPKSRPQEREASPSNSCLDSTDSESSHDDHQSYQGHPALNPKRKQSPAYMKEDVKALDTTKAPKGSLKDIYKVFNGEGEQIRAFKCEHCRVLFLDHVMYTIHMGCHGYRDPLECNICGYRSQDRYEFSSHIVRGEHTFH
T2 sequence (Q96SW2 whole entry): as the sequence (Q96SW2 whole entry) above
T2 sequence (Q16531 whole entry partner): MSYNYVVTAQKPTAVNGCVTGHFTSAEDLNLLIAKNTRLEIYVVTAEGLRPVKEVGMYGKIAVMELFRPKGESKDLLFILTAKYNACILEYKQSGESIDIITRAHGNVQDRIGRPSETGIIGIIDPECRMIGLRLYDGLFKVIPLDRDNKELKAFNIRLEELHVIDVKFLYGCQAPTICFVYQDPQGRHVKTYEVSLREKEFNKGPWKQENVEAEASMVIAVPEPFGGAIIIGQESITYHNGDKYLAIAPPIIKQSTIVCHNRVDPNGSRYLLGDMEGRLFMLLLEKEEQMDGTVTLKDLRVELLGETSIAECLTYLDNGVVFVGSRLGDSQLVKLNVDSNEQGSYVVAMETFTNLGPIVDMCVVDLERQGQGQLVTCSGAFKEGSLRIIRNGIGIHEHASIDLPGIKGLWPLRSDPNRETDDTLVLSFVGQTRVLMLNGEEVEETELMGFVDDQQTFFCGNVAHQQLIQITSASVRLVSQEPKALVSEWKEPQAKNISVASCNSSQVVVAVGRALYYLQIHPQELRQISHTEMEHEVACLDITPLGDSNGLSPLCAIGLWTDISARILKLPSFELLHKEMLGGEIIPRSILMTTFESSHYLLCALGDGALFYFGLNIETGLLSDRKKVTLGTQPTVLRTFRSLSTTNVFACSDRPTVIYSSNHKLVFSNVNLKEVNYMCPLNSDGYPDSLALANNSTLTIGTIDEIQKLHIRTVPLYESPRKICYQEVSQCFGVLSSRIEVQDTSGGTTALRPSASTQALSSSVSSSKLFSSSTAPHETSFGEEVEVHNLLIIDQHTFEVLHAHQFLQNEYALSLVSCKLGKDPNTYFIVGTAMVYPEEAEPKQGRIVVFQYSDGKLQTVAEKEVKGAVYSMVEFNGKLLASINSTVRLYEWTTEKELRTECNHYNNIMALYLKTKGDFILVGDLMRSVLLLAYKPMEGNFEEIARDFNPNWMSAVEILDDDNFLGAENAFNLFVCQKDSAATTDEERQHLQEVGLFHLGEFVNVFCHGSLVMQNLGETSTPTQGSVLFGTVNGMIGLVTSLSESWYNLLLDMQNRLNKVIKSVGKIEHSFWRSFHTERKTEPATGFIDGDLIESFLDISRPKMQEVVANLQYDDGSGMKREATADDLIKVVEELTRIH
Experimental: (§1) The effect of the compounds of the present disclosure on the expression of target proteins in cells was detected using conventional Western blot analysis.
(§2) Human peripheral blood mononuclear cells (hPBMCs) at a density of 1×10^6 cells/mL were thawed according to the PBMC Recovery Protocol (Milecell Biotechnologies Inc, Shanghai).
(§3) After 24 hours of compounds treatment, cells were harvested and lysed in RIPA protein lysate containing phosphatase inhibitors on ice for 30-60 min, followed by centrifugation. The supernatant was aspirated as the extracted total cell protein. The protein concentration of the supernatant was determined using the conventional BCA (Bicinchoninic Acid) assay. The supernatant was then mixed with 4× SDS sample loading buffer, denatured at 95° C. for 5 minutes, and then subjected to SDS-PAGE electrophoresis on a polyacrylamide gel. Proteins were then transferred to a nitrocellulose (NC) membrane, blocked at room temperature for 1-2 h, and processed for antibody incubation and detection according to the manufacturer's instructions (Cell Signaling Technology).
(§4) Half-Maximal Degradation Concentration value (the drug concentration required for degrading proteins by 50%, abbreviated as DC50) reads method: comparing the grayscale values of Western blot bands from drug-treated samples with those from blank DMSO-treated controls, and identifying the drug concentration range at which the grayscale value is half that of the DMSO-treated control bands.
(§5) DC50 values can be calculated using ImageJ software to measure grayscale values of Western blot bands from drug-treated samples. The concentration-response curve is fitted to estimate the drug concentration corresponding to half the grayscale value.
(§6) Target protein remaining (%) refers to the percentage of target protein remaining in hPBMC cells after treatment with protein degrader compounds.
(§7) Calculation method for protein remaining (%): Use ImageJ software to measure grayscale values of Western blot bands from drug (protein degrader)-treated samples. The grayscale value of drug-treated bands is divided by that of internal control protein bands, and the resulting quotient is normalized to obtain the relative percentage of remaining target protein after protein degrader treatment.
(§8) Target protein degradation rate (%)=100%−target protein remaining (%).

Wee1 = target: T3, Wee1 (Homo sapiens, UniProt P30291+Q96SW2); experiment: Western-blot assay, substrate protein in hPBMCs; assay type: cell-based; conditions: hPBMC cells, 24 hours, tested at 50 nM and 500 nM, table does not say which
T3 construct: endogenous in cells; host or cells: human PBMCs (Milecell Biotechnologies)
T3 sequence (P30291 whole entry): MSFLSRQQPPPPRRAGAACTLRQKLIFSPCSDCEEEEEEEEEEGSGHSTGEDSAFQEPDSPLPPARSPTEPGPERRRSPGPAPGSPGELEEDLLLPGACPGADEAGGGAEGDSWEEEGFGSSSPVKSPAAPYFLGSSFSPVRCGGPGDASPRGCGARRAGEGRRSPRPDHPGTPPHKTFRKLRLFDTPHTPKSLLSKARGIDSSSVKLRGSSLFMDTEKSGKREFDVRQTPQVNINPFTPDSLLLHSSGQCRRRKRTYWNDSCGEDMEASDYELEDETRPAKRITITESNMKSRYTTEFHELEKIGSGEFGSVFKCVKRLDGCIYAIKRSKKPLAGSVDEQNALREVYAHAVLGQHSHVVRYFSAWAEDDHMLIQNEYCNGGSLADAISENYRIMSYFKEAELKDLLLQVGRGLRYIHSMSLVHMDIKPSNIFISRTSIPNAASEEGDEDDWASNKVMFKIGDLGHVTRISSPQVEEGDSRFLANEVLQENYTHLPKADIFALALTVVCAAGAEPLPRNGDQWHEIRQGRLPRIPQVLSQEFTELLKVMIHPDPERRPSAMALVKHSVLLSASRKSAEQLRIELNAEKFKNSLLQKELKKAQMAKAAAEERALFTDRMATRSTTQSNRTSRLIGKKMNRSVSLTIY
T3 sequence (Q96SW2 whole entry): as the sequence (Q96SW2 whole entry) above
T3 sequence (Q16531 whole entry partner): as the sequence (Q16531 whole entry partner) above
Experimental: as §1, §2, §3, §4, §5, §6, §7, §8

CK1α = target: T4, CK1α (Homo sapiens, UniProt P48729+Q96SW2); experiment: Western-blot assay, substrate protein in hPBMCs; assay type: cell-based; conditions: hPBMC cells, 24 hours, tested at 50 nM and 500 nM, table does not say which
T4 construct: endogenous in cells; host or cells: human PBMCs (Milecell Biotechnologies)
T4 sequence (P48729 whole entry): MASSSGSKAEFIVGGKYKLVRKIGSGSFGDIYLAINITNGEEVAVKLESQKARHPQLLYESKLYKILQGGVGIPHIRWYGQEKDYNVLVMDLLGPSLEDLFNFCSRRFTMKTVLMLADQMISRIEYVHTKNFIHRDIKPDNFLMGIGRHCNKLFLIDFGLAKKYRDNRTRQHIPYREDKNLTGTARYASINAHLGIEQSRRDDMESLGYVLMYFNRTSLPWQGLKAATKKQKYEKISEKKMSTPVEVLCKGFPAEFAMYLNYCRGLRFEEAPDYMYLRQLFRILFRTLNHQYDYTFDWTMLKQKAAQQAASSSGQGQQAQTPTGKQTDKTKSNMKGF
T4 sequence (Q96SW2 whole entry): as the sequence (Q96SW2 whole entry) above
T4 sequence (Q16531 whole entry partner): as the sequence (Q16531 whole entry partner) above
Experimental: as §1, §2, §3, §4, §5, §6, §7, §8

GSPT1 = target: T5, GSPT1 (Homo sapiens, UniProt P15170+Q96SW2); experiment: Western-blot assay, substrate protein in hPBMCs; assay type: cell-based; conditions: hPBMC cells, 24 hours, tested at 50 nM and 500 nM, table does not say which
T5 construct: endogenous in cells; host or cells: human PBMCs (Milecell Biotechnologies)
T5 sequence (P15170 whole entry): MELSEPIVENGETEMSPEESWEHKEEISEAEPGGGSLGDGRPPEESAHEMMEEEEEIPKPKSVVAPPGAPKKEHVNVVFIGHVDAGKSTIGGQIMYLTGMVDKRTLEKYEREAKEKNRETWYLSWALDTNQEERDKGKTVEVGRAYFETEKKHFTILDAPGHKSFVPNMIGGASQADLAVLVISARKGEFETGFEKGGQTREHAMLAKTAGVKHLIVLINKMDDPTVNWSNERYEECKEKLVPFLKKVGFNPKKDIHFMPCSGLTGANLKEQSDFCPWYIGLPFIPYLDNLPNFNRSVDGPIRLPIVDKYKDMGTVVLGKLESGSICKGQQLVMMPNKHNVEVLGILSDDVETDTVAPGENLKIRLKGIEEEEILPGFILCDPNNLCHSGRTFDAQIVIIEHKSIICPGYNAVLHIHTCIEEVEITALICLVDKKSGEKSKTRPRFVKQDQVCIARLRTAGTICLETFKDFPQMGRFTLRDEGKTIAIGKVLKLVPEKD
T5 sequence (Q96SW2 whole entry): as the sequence (Q96SW2 whole entry) above
T5 sequence (Q16531 whole entry partner): as the sequence (Q16531 whole entry partner) above
Experimental: as §1, §2, §3, §4, §5, §6, §7, §8

IC50 [1] [nM]	SMILES	substrate protein remaining % (IKZF2)	substrate protein remaining % (Wee1)	substrate protein remaining % (CK1α)	substrate protein remaining % (GSPT1)
1000 to 1900	O=C1CCC(N2Cc3cc(SC4CC5CN(Cc6ccccc6-c6ccc(Cl)cc6)CC5C4)ccc3C2=O)C(=O)N1 (centres unmarked) [GT-06914, 3-(5-((2-((4′-chloro-[1,1′-biphenyl]-2-yl)methyl)octahydrocyclopenta[c]pyrrol-5-yl)thio)-1-oxoisoindolin-2-yl)piperidine-2,6-dione]	A (0%≤ substrate protein remaining % ≤80%)	A (0%≤ substrate protein remaining % ≤80%)		
< 500	CC1(C)CCC(C(=O)N2C[C@H]3CC(Oc4ccc5c(c4)CN(C4CCC(=O)NC4=O)C5=O)C[C@@H]3C2)=C(c2ccc(Cl)cc2)C1 (stereo partly drawn) [GT-07025, 3-(5-(((3aS,6aS)-2-(4′-chloro-5,5-dimethyl-3,4,5,6-tetrahydro-[1,1′-biphenyl]-2-carbonyl)octahydro-cyclopenta[c]pyrrol-5-yl)oxy)-1-oxoisoindolin-2-yl)piperidine-2,6-dione]	A (0%≤ substrate protein remaining % ≤80%)		A (0%≤ substrate protein remaining % ≤80%)	
1000 to 1900	O=C1CCC(N2Cc3cc(SC4CCCN(Cc5ccccc5-c5ccc(Cl)cc5)CC4)ccc3C2=O)C(=O)N1 (centres unmarked) [GT-06643, 3-(5-((1-((4′-chloro-[1,1′-biphenyl]-2-yl)methyl)azepan-4-yl)thio)-1-oxoisoindolin-2-yl)piperidine-2,6-dione]	A (0%≤ substrate protein remaining % ≤80%)	A (0%≤ substrate protein remaining % ≤80%)		
500 to 1000	CC1(C)CCC(C(=O)N2CCC(Oc3ccc4c(c3)CN(C3CCC(=O)NC3=O)C4=O)CC2)=C(c2ccc(Cl)cc2)C1 (centres unmarked) [GT-06192, 3-(5-((1-(4′-chloro-5,5-dimethyl-3,4,5,6-tetrahydro-[1,1′-biphenyl]-2-carbonyl)piperidin-4-yl)oxy)-1-oxoisoindolin-2-yl)piperidine-2,6-dione]	A (0%≤ substrate protein remaining % ≤80%)	A (0%≤ substrate protein remaining % ≤80%)		
500 to 1000	O=C1CCC(N2Cc3cc(SC4CCN(C(c5ccccc5)c5ccccc5)C4)ccc3C2=O)C(=O)N1 (centres unmarked) [GT-06196, 3-(5-((1-benzhydrylpyrrolidin-3-yl)thio)-1-oxoisoindolin-2-yl)piperidine-2,6-dione]	A (0%≤ substrate protein remaining % ≤80%)		A (0%≤ substrate protein remaining % ≤80%)	A (0%≤ substrate protein remaining % ≤80%)
< 500	O=C1CCC(N2Cc3cc(SC4CN(C(c5ccccc5)c5ccccn5)C4)ccc3C2=O)C(=O)N1 (centres unmarked) [GT-06518, 3-(1-oxo-5-((1-(phenyl(pyridin-2-yl)methyl)azetidin-3-yl)thio)isoindolin-2-yl)piperidine-2,6-dione]	A (0%≤ substrate protein remaining % ≤80%)		A (0%≤ substrate protein remaining % ≤80%)	A (0%≤ substrate protein remaining % ≤80%)
< 500	CC1(C)CC(c2ccc(Cl)cc2)=C(CN2CC(Oc3ccc4c(c3)CN(C3CCC(=O)NC3=O)C4=O)C2)CO1 (centres unmarked) [GT-06561, 3-(5-((1-((4-(4-chlorophenyl)-6,6-dimethyl-5,6-dihydro-2H-pyran-3-yl)methyl)azetidin-3-yl)oxy)-1-oxoisoindolin-2-yl)piperidine-2,6-dione]	A (0%≤ substrate protein remaining % ≤80%)	A (0%≤ substrate protein remaining % ≤80%)		
< 500	O=C1CCC(N2Cc3cc(OC4CN(C(c5ccccc5F)c5ccccc5F)C4)ccc3C2=O)C(=O)N1 (centres unmarked) [GT-06759, 3-(5-((1-(bis(2-fluorophenyl)methyl)azetidin-3-yl)oxy)-1-oxoisoindolin-2-yl)piperidine-2,6-dione]	A (0%≤ substrate protein remaining % ≤80%)			A (0%≤ substrate protein remaining % ≤80%)
500 to 1000	O=C1CCC(N2Cc3cc(SC4CC5(CCNCC5)C4)ccc3C2=O)C(=O)N1 (centres unmarked) [GT-06997, 3-(5-((7-azaspiro[3.5]nonan-2-yl)thio)-1-oxoisoindolin-2-yl)piperidine-2,6-dione]	A (0%≤ substrate protein remaining % ≤80%)			A (0%≤ substrate protein remaining % ≤80%)
< 500	O=C1CCC(N2Cc3cc(SC4CN(CC5=C(c6ccc(F)cc6)CCCC5)C4)ccc3C2=O)C(=O)N1 (centres unmarked) [GT-06301, 3-(5-((1-((4′-fluoro-3,4,5,6-tetrahydro-[1,1′-biphenyl]-2-yl)methyl)azetidin-3-yl)thio)-1-oxoisoindolin-2-yl)piperidine-2,6-dione]	A (0%≤ substrate protein remaining % ≤80%)	A (0%≤ substrate protein remaining % ≤80%)		A (0%≤ substrate protein remaining % ≤80%)
1000 to 1900	CC1(C)CCC(C(=O)N2CCCC(Sc3ccc4c(c3)CN(C3CCC(=O)NC3=O)C4=O)CC2)=C(c2ccc(Cl)cc2)C1 (centres unmarked) [GT-06642, 3-(5-((1-(4′-chloro-5,5-dimethyl-3,4,5,6-tetrahydro-[1,1′-biphenyl]-2-carbonyl)azepan-4-yl)thio)-1-oxoisoindolin-2-yl)piperidine-2,6-dione]	A (0%≤ substrate protein remaining % ≤80%)			A (0%≤ substrate protein remaining % ≤80%)
1000 to 1900	O=C1CCC(N2Cc3cc(OC4CCN(Cc5ccccc5-c5ccc(Cl)cc5)CC4)ccc3C2=O)C(=O)N1 (centres unmarked) [GT-06193, 3-(5-((1-((4′-chloro-[1,1′-biphenyl]-2-yl)methyl)piperidin-4-yl)oxy)-1-oxoisoindolin-2-yl)piperidine-2,6-dione]	A (0%≤ substrate protein remaining % ≤80%)	A (0%≤ substrate protein remaining % ≤80%)		A (0%≤ substrate protein remaining % ≤80%)
< 500	O=C1CCC(N2Cc3cc(SC4C[C@@H]5CN(C(=O)c6ccccc6-c6ccc(Cl)cc6)C[C@@H]5C4)ccc3C2=O)C(=O)N1 (stereo partly drawn) [GT-07024, 3-(5-(((3aR,6aS)-2-(4′-chloro-[1,1′-biphenyl]-2-carbonyl)octahydro-cyclopenta[c]pyrrol-5-yl)thio)-1-oxoisoindolin-2-yl)piperidine-2,6-dione]	A (0%≤ substrate protein remaining % ≤80%)	A (0%≤ substrate protein remaining % ≤80%)		
1000 to 1900	CC1(C)CCC(CN2CC3CC(Sc4ccc5c(c4)CN(C4CCC(=O)NC4=O)C5=O)CC3C2)=C(c2ccc(Cl)cc2)C1 (centres unmarked) [GT-06813, 3-(5-((2-((4′-chloro-5,5-dimethyl-3,4,5,6-tetrahydro-[1,1′-biphenyl]-2-yl)methyl)octahydro-cyclopenta[c]pyrrol-5-yl)thio)-1-oxoisoindolin-2-yl)piperidine-2,6-dione]	A (0%≤ substrate protein remaining % ≤80%)	A (0%≤ substrate protein remaining % ≤80%)		A (0%≤ substrate protein remaining % ≤80%)
